Laboratory results taken from patent US8389535B2, “L-methylfolate treatment for psychiatric or neurologic disorders” (priority 2010, dated 2013).

Legend:
[1] = cited from earlier work
[2] = test system: patients with an autism spectrum disorder or an attention deficit disorder
Method: The patient is dosed with L-methylfolate orally once a day according to preparations available. The patient takes the medication at the same time of day and with a snack or meal. The patient is initially dosed with L-methylfolate according to weight as follows: • 25-45 lbs (11-20 kg): 2.5 mg • 46-60 lbs (21-27 kg): 5 mg • 61-90 lbs (28-41 kg): 7.5 mg • 91+ lbs (42+kg): 7.5-15 mg Dose Modifications and Duration of Therapy
L-methylfolate is administered in doses and forms appropriate for age. L-methylfolate is titrated upward as indicated by behavior improvement according to the results from the screens. Titration may occur from week 1 through 30 days as indicated by the physician. From 30 days to 90 days, the achieved dose at 30 days is maintained until 90 days to observe for tolerance to drug, side effects. During this time, if the child is not weaned from stimulant medications, attempts are made to lower the stimulant as tolerated and discontinue stimulants if at all possible.
In implementing therapy the first consideration is the presence of clinical signs consistent with previous or current diagnosis of an autism spectrum disorder or an attention deficit disorder. […] The established diagnosis was not a sole indicator for therapy.
Second, a review of the family history is necessary. […] Parents were questioned about the presence of ADHD or autism spectrum disorders in the immediate family or extended family. Of particular interest was the presence of other neuropsychiatric conditions, such as depression, anxiety, and bipolar disorder. Parents also were queried regarding the presence of heart disease, difficulties with pregnancy due infertility or miscarriages, leukemia, gastric and colon cancers, breast cancer and stroke. In elderly members of the family, the occurrence of dementia, Alzheimer's, and Parkinson's was also discussed. The above diseases have also been associated to varying degrees with the methylenetetrahydrofolate reductase defect.
Third, blood samples were collected and evaluated. The laboratory exams completed on the blood samples were: a complete blood count with differential, serum folate, serum B12, and serum homocysteine. The tests were performed to establish a baseline for red cell morphology while evaluating for any pre-existing pathologies related to anemia, leukemia, or other blood dycrasias. Serum folate and B12 have been implicated in certain pathologies of the red blood cell and are critical components in folate metabolism. Vitamin B12 in the range of 400 pg/ml or less has been associated with neuropsychiatric sequelae in 5-10% of population. (Quest Labs) Finally, elevated homocysteine levels in the serum have been associated with various disease states, particularly in the presence of the methylenetetrahydrofolate reductase gene polymorphisms. […] However, a few researchers have been able to evaluate severely compromised children.
Fourth, serum was evaluated for the presence of methylenetetrahydrofolate reductase polymorphisms as a predictor of condition severity and response to therapy. Given the expense of these analyses, it was decided to delay evaluation of the serum for the polymorphisms until a clinic response was determined.
In a preliminary trial, nineteen patients, ages 4-43 years, (3 female, 16 male) were randomly selected over the course of three months. Patients were permitted to remain on current medication or supplemental, i.e., fish oil and vitamins, therapies at parental request.

[3] = as a medical food or other suitable formulation; cited from earlier work
[4] = test system: CP-450 system; details: cited from earlier work
[5] = via the kidneys; cited from earlier work
[6] = of the 14 patients, parental report

Structure (SMILES)	side effect, anecdotal report ([1]; one patient, dose increased to 1 mg/kg/d)	response to therapy as indicated by parents' correspondence and office visits ([2]; 14 remaining of 19 patients, ages 4-43 years, oral once daily, dose by weight 2.5-15 mg, more stable mood, increased attentiveness, improved sleep hygiene)	patients with intermediate responses [2, 6]	patients with significant improvements [2, 6]	side effects ([2]; preliminary experience)	time course of initial improvement ([2]; preliminary trial)	clinical response in patients negative for MTHFR gene polymorphisms ([2]; two children, parental reports)	response in patients positive for MTHFR gene polymorphisms ([2]; two of four patients with MTHFR analyses)	blood brain barrier crossing [3]	effect on CP-450 system [4]	excretion [5]	allergic reactions ([1]; oral use)
Nc1nc(=O)c2c([nH]1)NCC(CNc1ccc(C(=O)N[C@@H](CCC(=O)O)C(=O)O)cc1)N2C=O (mixture of isomers) [folinic acid]	worsening of behavior symptoms											
CN1c2c(nc(N)[nH]c2=O)NC[C@@H]1CNc1ccc(C(=O)N[C@@H](CCC(=O)O)C(=O)O)cc1 [L-methylfolate, 6(S)-5-methyltetrahydrofolate]		all have had a response to therapy	two	12	No side effects have been reported	3-5 days, two weeks, or 4-6 weeks	responding clinically	positive response to therapy	crosses the blood brain barrier	does not affect CP-450 system	rapidly excreted via the kidneys	Allergic reactions have been documented
